This note sets out measurements from patent US20250270246A1, “LINCOSAMIDES AND USES THEREOF” (President and Fellows of Harvard College, priority 2022, published 2025).

Counter-ions that a name gives are not always drawn. Like-named read-outs stand apart in the source and are kept apart here.

For data set [1] the following is noted: rcm bond, Grubbs II (20 mol%)/benzoquinone, toluene.
Data set [2] relates to A. baumannii ATCC 19606 (HAV#010). As to the kind of experiment: MIC by broth microdilution (CLSI). Conditions: for MIC: Acinetobacter baumannii, ATCC19606, 24 h, read-out: MIC A. baumannii ATCC 19606. It is filed as cell-based. An outline of the steps: (§1)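 CLSI broth microdilution in cation-adjusted Mueller-Hinton broth, inoculum 5×10^5 CFU/mL, compounds typically 64-0.06 μg/mL with 2.5% final DMSO. MIC is the lowest concentration preventing visible growth after 24 h. For P. aeruginosa, broth was pre-treated with Chelex 100 resin.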
In general terms: Broth dilution looks for growth in wells or tubes with falling amounts of substance.

Data set [3] deals with E. coli ATCC 25922 (HAV#006). As to the kind of experiment: MIC by broth microdilution (CLSI). To be noted: for MIC: Escherichia coli, ATCC25922, 24 h, read-out: MIC E. coli ATCC 25922. It is filed as cell-based. An outline of the steps:
as §1

The next data set relates to E. coli lptD mutant. Put plainly: MIC by broth microdilution (CLSI). It is filed as cell-based. To be noted: CaMHB, 24 h incubation; for MIC: Escherichia coli, 24 h, read-out: MIC E. coli lptD mutant, lptD mutant / ΔlptD mutant. An outline of the steps:
as §1

The next data set relates to E. coli ΔtolC. Put plainly: MIC by broth microdilution (CLSI). Format: cell-based. To be noted: CaMHB, 24 h incubation; for MIC: Escherichia coli, 24 h, read-out: MIC E. coli ΔtolC, ΔtolC. In a few lines: as §1
In data set [4] the test system is E. faecalis ATCC 29212 (HAV#005). Put plainly: MIC by broth microdilution (CLSI). It is filed as cell-based. Conditions: for MIC: Enterococcus faecalis, ATCC29212, 24 h, read-out: MIC E. faecalis ATCC 29212. An outline of the steps:
as §1

In another data set the test system is E. faecium JMI-990536. Put plainly: MIC by broth microdilution (CLSI). Format: cell-based. Conditions: for MIC: Enterococcus faecium, JMI990536, 24 h, read-out: MIC E. faecium JMI-990536. An outline of the steps: as §1
For a further data set, the system named is K. pneumoniae JMI-991193. As to the kind of experiment: MIC by broth microdilution (CLSI). Format: cell-based. To be noted: Klebsiella pneumoniae, JMI991193, 24 h, read-out: MIC K. pneumoniae JMI-991193. In a few lines: as §1
Data set [5] deals with S. aureus ATCC 29213 (HAV#001). Put plainly: MIC by broth microdilution (CLSI). To be noted: for MIC: Staphylococcus aureus, ATCC29213, 24 h, read-out: MIC S. aureus ATCC 29213. It is filed as cell-based. An outline of the steps:
as §1

A further data set has as its system S. aureus Clinical (cfr). As to the kind of experiment: MIC by broth microdilution (CLSI). It is filed as cell-based. Conditions: for MIC: Staphylococcus aureus, 24 h, read-out: MIC S. aureus Clinical (cfr). An outline of the steps: as §1
The test system of another data set is S. aureus MMX 3035. As to the kind of experiment: MIC by broth microdilution (CLSI). It is filed as cell-based. Conditions: for MIC: Staphylococcus aureus, MMX3035, 24 h, read-out: MIC S. aureus MMX 3035. An outline of the steps: as §1
Setting [6] is: from C=CCCCCS[C@H]1O[C@H]([C@H](N[S@](=O)C(C)(C)C)[C@H](C)C=C)[C@H](OC(C)=O)[C@H](OC(C)=O)[C@H]1OC(C)=O, 12-membered ring, 2.0 mM, 0.25 h.
The mark [7] stands for this setting: JMI-991193, CaMHB, 24 h incubation.
Where [8] appears, read: HAV#010, ATCC 19606, CaMHB, 24 h incubation.
The mark [9] stands for this setting: HAV#006, ATCC 25922, CaMHB, 24 h incubation.
Where [10] appears, read: HAV#005, ATCC 29212, CaMHB, 24 h incubation.
Where [11] appears, read: JMI-990536, CaMHB, 24 h incubation.
Where [12] appears, read: HAV#001, ATCC 29213, CaMHB, 24 h incubation.
Where [13] appears, read: Clinical (cfr), CaMHB, 24 h incubation.
The mark [14] stands for this setting: MMX 3035, CaMHB, 24 h incubation.

Turning to `C[C@@H]1/C=C\C[C@@H](CO[Si](C)(C)C(C)(C)C)S[C@H]2O[C@H]([C@@H]1N[S@](=O)C(C)(C)C)[C@H](OC(=O)c1ccccc1)[C@H](OC(=O)c1ccccc1)[C@H]2OC(=O)c1ccccc1`, the ring closure, isolated yield in [1] (from C=CCC(CO[Si](C)(C)C(C)(C)C)S[C@H]1O[C@H]([C@H](N[S@](=O)C(C)(C)C)C(C)C=C)[C@H](OC(=O)c2ccccc2)[C@H](OC(=O)c2ccccc2)[C@H]1OC(=O)c1ccccc1, 10-membered ring, 2.0 mM, 0.25 h) was determined as 85%.
Compound `CC(C)(C)[S@@](=O)N[C@@H]1C/C=C\CC(CO[Si](C)(C)C(C)(C)C)S[C@H]2O[C@H]1[C@H](OC(=O)c1ccccc1)[C@H](OC(=O)c1ccccc1)[C@H]2OC(=O)c1ccccc1` (stereo partly drawn) registered a ring closure, isolated yield in data set [1] (from C=CCC(CO[Si](C)(C)C(C)(C)C)S[C@H]1O[C@H]([C@@H](CC=C)N[S@](=O)C(C)(C)C)[C@H](OC(=O)c2ccccc2)[C@H](OC(=O)c2ccccc2)[C@H]1OC(=O)c1ccccc1, 10-membered ring, 1.0 mM, 0.25 h) of 85%.
Consider `C[C@@H]1/C=C\CCS[C@H]2O[C@H]([C@@H]1N[S@](=O)C(C)(C)C)[C@H](OC(=O)c1ccccc1)[C@H](OC(=O)c1ccccc1)[C@H]2OC(=O)c1ccccc1`, for which the ring closure, isolated yield in data set [1] (from C=CCCS[C@H]1O[C@H]([C@H](N[S@](=O)C(C)(C)C)[C@H](C)C=C)[C@H](OC(=O)c2ccccc2)[C@H](OC(=O)c2ccccc2)[C@H]1OC(=O)c1ccccc1, 10-membered ring, 0.2 mM, 0.33 h) turned out to be 19%.
Turning to `CC(=O)O[C@@H]1[C@H](OC(C)=O)[C@@H](OC(C)=O)[C@@H]2O[C@@H]1[C@H](N[S@](=O)C(C)(C)C)C(C)/C=C\CCCCS2` (stereo partly drawn), the ring closure, isolated yield in [1] (setting [6]) turned out to be 6.3%.
In data set [1] (from C=CCCS[C@H]1O[C@H]([C@@H](CC=C)NC(=O)C(F)(F)F)[C@H](O)[C@H](O)[C@H]1O, 10-membered ring, 0.4 mM, 0.33 h), `O=C(N[C@@H]1C/C=C\CCS[C@H]2O[C@H]1[C@H](O)[C@H](O)[C@H]2O)C(F)(F)F` registered a ring closure, isolated yield of 39%.
For `CC(=O)O[C@@H]1[C@H](OC(C)=O)[C@@H](OC(C)=O)[C@@H]2O[C@@H]1[C@H](N[S@](=O)C(C)(C)C)C(C)/C=C/CCCS2` (mixture of isomers), the ring closure, isolated yield in data set [1] (from C=CCCCS[C@H]1O[C@H]([C@H](N[S@](=O)C(C)(C)C)[C@H](C)C=C)[C@H](OC(C)=O)[C@H](OC(C)=O)[C@H]1OC(C)=O, 11-membered ring, 1.9 mM, 0.25 h) worked out at 85%.
In data set [1] (from C=CCCS[C@H]1O[C@H]([C@H](N[S@](=O)C(C)(C)C)[C@@H](C)C=C)[C@H](OC(=O)c2ccccc2)[C@H](OC(=O)c2ccccc2)[C@H]1OC(=O)c1ccccc1, 10-membered ring, 0.2 mM, 0.33 h), `C[C@H]1/C=C/CCS[C@H]2O[C@H]([C@@H]1N[S@](=O)C(C)(C)C)[C@H](OC(=O)c1ccccc1)[C@H](OC(=O)c1ccccc1)[C@H]2OC(=O)c1ccccc1` yielded a ring closure, isolated yield of 6%.
`CC(C)C[C@@H]1CCO[C@@H]2[C@H](CN[C@@H]2C(=O)N[C@@H]2C(C)/C=C/CCCSC3OC2C(O)C(O)C3O)C1` (stereo in doubt) [FSA1609094, (4S,5aS,8S,8aR)-4-isobutyl-N-((1R,8S,9R,10R,11R,12S,13R,E)-11,12,13-trihydroxy-8-methyl-14-oxa-2-thiabicyclo[8.3.1]tetradec-6-en-9-yl) octahydro-2H-oxepino[2,3-c]pyrrole-8-carboxamide formate salt]: the “MIC A. baumannii ATCC 19606” value in data set [2] (HAV#010, ATCC 19606, CaMHB, 24 h incubation, formate salt) is more than 32 µg/mL. In addition, the “MIC E. coli ATCC 25922” value in data set [3] (HAV#006, ATCC 25922, CaMHB, 24 h incubation, formate salt) was more than 32 µg/mL. Besides, the “MIC E. coli lptD mutant” value with E. coli lptD mutant (lptD mutant / ΔlptD mutant, formate salt) was 32 µg/mL. For the same compound, the “MIC E. coli ΔtolC” value in the data set on E. coli ΔtolC (ΔtolC, formate salt) is 32 µg/mL. For the same compound, the “MIC E. faecalis ATCC 29212” value in [4] (HAV#005, ATCC 29212, CaMHB, 24 h incubation, formate salt) is 2 µg/mL. In addition, in the data set on E. faecium JMI-990536 (JMI-990536, CaMHB, 24 h incubation, formate salt), the “MIC E. faecium JMI-990536” value was more than 32 µg/mL. Also, the MIC in the data set with K. pneumoniae JMI-991193 (setting [7]) is more than 32 µg/mL. In addition, the “MIC S. aureus ATCC 29213” value in data set [5] (HAV#001, ATCC 29213, CaMHB, 24 h incubation, formate salt) worked out at 0.25 µg/mL. In addition, the “MIC S. aureus Clinical (cfr)” value with S. aureus Clinical (cfr) (Clinical (cfr), CaMHB, 24 h incubation, formate salt) is more than 32 µg/mL. In addition, the “MIC S. aureus MMX 3035” value in the data set on S. aureus MMX 3035 (MMX 3035, CaMHB, 24 h incubation, formate salt) is more than 32 µg/mL.
For the compound `CC(C)C[C@@H]1CCO[C@@H]2[C@H](CN[C@@H]2C(=O)N[C@@H]2C/C=C\C[C@@H](F)CS[C@H]3O[C@H]2[C@H](O)[C@H](O)[C@H]3O)C1` [FSA1607022, (4S,5aS,8S,8aR)—N-((1R,4R,9R,10R,11R,12S,13R,Z)-4-fluoro-11,12,13-trihydroxy-14-oxa-2-thiabicyclo[8.3.1]tetradec-6-en-9-yl)-4-isobutyloctahydro-2H-oxepino[2,3-c]pyrrole-8-carboxamide formate salt], the MIC in data set [2] is 2 µg/mL; in data set [3], 2 µg/mL; in the data set with E. coli lptD mutant, 0.25 µg/mL; in the data set with E. coli ΔtolC, 0.25 µg/mL; in data set [4], not above 0.06 µg/mL; in the data set with E. faecium JMI-990536, 1 µg/mL. Also, the MIC in the data set with K. pneumoniae JMI-991193 is 8 µg/mL; in data set [5], not above 0.06 µg/mL; in the data set on S. aureus Clinical (cfr), 4 µg/mL; in the data set on S. aureus MMX 3035, 4 µg/mL.
For the compound `CC(C)C[C@@H]1CCO[C@@H]2[C@H](CN[C@@H]2C(=O)N[C@@H]2C/C=C/[C@H](CO)CSC3O[C@H]2C(O)C(O)[C@H]3O)C1` (single isomer, unassigned) [FSA1608025B, formate salt], the MIC was more than 64 µg/mL in [2] (setting [8]); more than 64 µg/mL in data set [3] (setting [9]); more than 64 µg/mL in the data set on E. coli lptD mutant; more than 64 µg/mL with E. coli ΔtolC; 32 µg/mL in [4] (setting [10]); 32 µg/mL in the data set on E. faecium JMI-990536 (setting [11]). The MIC with K. pneumoniae JMI-991193 (setting [7]) was more than 64 µg/mL; in data set [5] (setting [12]), 32 µg/mL; in the data set on S. aureus Clinical (cfr) (setting [13]) it was more than 64 µg/mL; in the data set on S. aureus MMX 3035 (setting [14]), more than 64 µg/mL.
`CC(=O)O[C@@H]1[C@H](OC(C)=O)[C@@H](OC(C)=O)[C@@H]2O[C@@H]1[C@H](N[S@](=O)C(C)(C)C)C(C)/C=C/CCCCS2` (stereo partly drawn) returned a ring closure, isolated yield in data set [1] (setting [6]) of 64.8%.
As to `CC(C)C[C@@H]1CCO[C@@H]2[C@H](CN[C@@H]2C(=O)N[C@@H]2C/C=C\C[C@H](CN3CCOCC3)S[C@H]3O[C@H]2[C@H](O)[C@H](O)[C@H]3O)C1` [FSA1607020, (4S,5aS,8S,8aR)-4-isobutyl-N-((1R,3R,8R,9R,10R,11S,12R,Z)-10,11,12-trihydroxy-3-(morpholinomethyl)-13-oxa-2-thiabicyclo[7.3.1]tridec-5-en-8-yl) octahydro-2H-oxepino[2,3-c]pyrrole-8-carboxamide formate salt], the MIC in [2] (setting [8]) was found to be 32 µg/mL; in data set [3] (setting [9]), 8 µg/mL; with E. coli lptD mutant it was 1 µg/mL; in the data set with E. coli ΔtolC, 0.25 µg/mL; in data set [4] (setting [10]), 4 µg/mL; with E. faecium JMI-990536 (setting [11]) it was 16 µg/mL. Moreover, the MIC was more than 64 µg/mL with K. pneumoniae JMI-991193 (setting [7]), 4 µg/mL in [5] (setting [12]), 16 µg/mL with S. aureus Clinical (cfr) (setting [13]) and 16 µg/mL in the data set on S. aureus MMX 3035 (setting [14]).
